Experimental data reported in patent publication US20260297081A1, “COMPOUNDS AND METHODS OF TREATING CANCERS” (Cullgen Inc., priority 2023, published 2026).

tested on: Calu-1 cells; assay: Anti-proliferation (viability) of NSCLC Calu-1 cells, 3 days (Table 7, FIG. 2B); format: cell-based; settings: Homo sapiens, 72 h; Calu-1 cells, 3 days, 10-point serial dilution; read-out: GI IC50 in Calu-1
Experimental: To evaluate anti-proliferation activities of heterobifunctional compounds, NSCLC Calu-1 or ER+ breast cancer T47D cells were treated with selected heterobifunctional compounds following a 10-point serial dilution for 3 or 6 days, respectively.
To verify that heterobifunctional compound-mediated degradation is dependent on the binding to CDK4-cyclin D complex, a negative control compound, CPD-143, which is derived from active heterobifunctional compound CPD-10 was designed. CPD-143 bears the same DDB1 ligand and linker as CPD-10 but with a modified warhead to impair the binding of the control compound to CDK4.

| Compound | IC50 [nM] |
| --- | --- |
| [2H]C([2H])([2H])Nc1ccc(C(=O)Nc2ccc(N(C)C)nn2)c(NC2CC3(C2)CN(C(=O)CN2CC4(C2)CN(c2ccc(Nc5ncc6c(C)c(C(C)=O)c(=O)n(C7CCCC7)c6n5)nc2)C4)C3)n1 [CPD-489, 2-((2-(2-(6-(6-((6-acetyl-8-cyclopentyl-5-methyl-7-oxo-7,8-dihydropyrido[2,3-d]pyrimidin-2-yl)amino)pyridin-3-yl)-2,6-diazaspiro[3.3]heptan-2-yl)acetyl)-2-azaspiro[3.3]heptan-6-yl)amino)-N-(6-(dimethylamino)pyridazin-3-yl)-6-((methyl-d3)amino)nicotinamide] | ≥ 50 |
| CC(=O)c1c(C)c2cnc(Nc3ccc(CN4CCN(C5CCN(C(=O)C6CCC(Nc7nc(NC(C)C)ccc7C(=O)Nc7ccc(N(C)C)nn7)C6)C5)CC4)cn3)nc2n(C2CCCC2)c1=O (stereo not shown) [CPD-511, 2-((3-(3-(4-((6-((6-acetyl-8-cyclopentyl-5-methyl-7-oxo-7,8-dihydropyrido[2,3-d]pyrimidin-2-yl)amino)pyridin-3-yl)methyl)piperazin-1-yl)pyrrolidine-1-carbonyl)cyclopentyl)amino)-N-(6-(dimethylamino)pyridazin-3-yl)-6-(isopropylamino)nicotinamide] | ≥ 50 |
| [2H]C([2H])([2H])Nc1ccc(C(=O)Nc2ccc(N(C)C)nn2)c(NC2CCN(C(=O)CN3CC4(C3)CN(c3ccc(Nc5ncc6c(C)c(C(C)=O)c(=O)n(C7CCCC7)c6n5)nc3)C4)CC2)n1 [CPD-490, 2-((1-(2-(6-(6-((6-acetyl-8-cyclopentyl-5-methyl-7-oxo-7,8-dihydropyrido[2,3-d]pyrimidin-2-yl)amino)pyridin-3-yl)-2,6-diazaspiro[3.3]heptan-2-yl)acetyl)piperidin-4-yl)amino)-N-(6-(dimethylamino)pyridazin-3-yl)-6-((methyl-d3)amino)nicotinamide] | ≥ 50 |
| CC(=O)c1c(C)c2cnc(Nc3ccc(N4CCN(CC(=O)NC5CC6(C5)CC(Nc5nc(NC(C)C)ccc5C(=O)Nc5cc(C)n(C(F)(F)F)n5)C6)CC4)cn3)nc2n(C2CCCC2)c1=O (stereo not shown) [CPD-514, 2-((6-(2-(4-(6-((6-acetyl-8-cyclopentyl-5-methyl-7-oxo-7,8-dihydropyrido[2,3-d]pyrimidin-2-yl)amino)pyridin-3-yl)piperazin-1-yl)acetamido)spiro[3.3]heptan-2-yl)amino)-6-(isopropylamino)-N-(5-methyl-1-(trifluoromethyl)-1H-pyrazol-3-yl)nicotinamide] | ≥ 50 |
| [2H]C([2H])([2H])Nc1ccc(C(=O)Nc2cc3n(n2)CCC3)c(NC2CC3(C2)CN(C(=O)CC(N2CCN(c4ccc(Nc5ncc6c(C)c(C(C)=O)c(=O)n(C7CCCC7)c6n5)nc4)CC2)C(F)(F)F)C3)n1 (stereo not shown) [CPD-524, 2-((2-(3-(4-(6-((6-acetyl-8-cyclopentyl-5-methyl-7-oxo-7,8-dihydropyrido[2,3-d]pyrimidin-2-yl)amino)pyridin-3-yl)piperazin-1-yl)-4,4,4-trifluorobutanoyl)-2-azaspiro[3.3]heptan-6-yl)amino)-N-(5,6-dihydro-4H-pyrrolo[1,2-b]pyrazol-2-yl)-6-((methyl-d3)amino)nicotinamide] | ≤ 10 |
| CC(=O)c1c(C)c2cnc(Nc3ccc(CN4CCN(CC(=O)NC56CC(Nc7nc(NC(C)C)ccc7C(=O)Nc7ccc(N(C)C)nn7)(C5)C6)CC4)cn3)nc2n(C2CCCC2)c1=O [CPD-502, 2-((3-(2-(4-((6-((6-acetyl-8-cyclopentyl-5-methyl-7-oxo-7,8-dihydropyrido[2,3-d]pyrimidin-2-yl)amino)pyridin-3-yl)methyl)piperazin-1-yl)acetamido)bicyclo[1.1.1]pentan-1-yl)amino)-N-(6-(dimethylamino)pyridazin-3-yl)-6-(isopropylamino)nicotinamide] | 10 to 50 |
| CC(=O)c1c(C)c2cnc(Nc3ccc(N4CCC5(CCN(CC(=O)NCC67CC(Nc8nc(NC(C)C)ccc8C(=O)Nc8ccc(N(C)C)nn8)(C6)C7)C5)C4)cn3)nc2n(C2CCCC2)c1=O (stereo not shown) [CPD-485, 2-((3-((2-(7-(6-((6-acetyl-8-cyclopentyl-5-methyl-7-oxo-7,8-dihydropyrido[2,3-d]pyrimidin-2-yl)amino)pyridin-3-yl)-2,7-diazaspiro[4.4]nonan-2-yl)acetamido)methyl)bicyclo[1.1.1]pentan-1-yl)amino)-N-(6-(dimethylamino)pyridazin-3-yl)-6-(isopropylamino)nicotinamide] | ≤ 10 |
| [2H]C([2H])([2H])Nc1ccc(C(=O)Nc2ccc(N(C)C)nn2)c(N[C@H]2CC[C@H](C(=O)N3CCN(Cc4ccc(Nc5ncc6c(C)c(C(C)=O)c(=O)n(C7CCCC7)c6n5)nc4)CC3)CC2)n1 [CPD-495, 2-((4-(4-((6-((6-acetyl-8-cyclopentyl-5-methyl-7-oxo-7,8-dihydropyrido[2,3-d]pyrimidin-2-yl)amino)pyridin-3-yl)methyl)piperazine-1-carbonyl)cyclohexyl)amino)-N-(6-(dimethylamino)pyridazin-3-yl)-6-((methyl-d3)amino)nicotinamide] | ≥ 50 |
| [2H]C([2H])([2H])Nc1ccc(C(=O)Nc2ccc(N(C)C)nn2)c(NC2CC3(C2)CN(CC(=O)N2CCC4(CCN(Cc5ccc(Nc6ncc7c(C)c(C(C)=O)c(=O)n(C8CCCC8)c7n6)nc5)C4)C2)C3)n1 (stereo not shown) [CPD-507, 2-((2-(2-(7-((6-((6-acetyl-8-cyclopentyl-5-methyl-7-oxo-7,8-dihydropyrido[2,3-d]pyrimidin-2-yl)amino)pyridin-3-yl)methyl)-2,7-diazaspiro[4.4]nonan-2-yl)-2-oxoethyl)-2-azaspiro[3.3]heptan-6-yl)amino)-N-(6-(dimethylamino)pyridazin-3-yl)-6-((methyl-d3)amino)nicotinamide] | ≥ 50 |
| CC(=O)c1c(C)c2cnc(Nc3ccc(CN4CC5(CN(CC(=O)N6CC7(CC(Nc8nc(NC(C)C)ccc8C(=O)Nc8ccc(N(C)C)nn8)C7)C6)C5)C4)cn3)nc2n(C2CCCC2)c1=O [CPD-508, 2-((2-(2-(6-((6-((6-acetyl-8-cyclopentyl-5-methyl-7-oxo-7,8-dihydropyrido[2,3-d]pyrimidin-2-yl)amino)pyridin-3-yl)methyl)-2,6-diazaspiro[3.3]heptan-2-yl)acetyl)-2-azaspiro[3.3]heptan-6-yl)amino)-N-(6-(dimethylamino)pyridazin-3-yl)-6-(isopropylamino)nicotinamide] | ≥ 50 |
| [2H]C([2H])([2H])Nc1ccc(C(=O)Nc2ccc(N(C)C)nn2)c(NC2CC3(C2)CN(C(=O)CN2CCC4(CCN(Cc5ccc(Nc6ncc7c(C)c(C(C)=O)c(=O)n(C8CCCC8)c7n6)nc5)C4)C2)C3)n1 (stereo not shown) [CPD-519, 2-((2-(2-(7-((6-((6-acetyl-8-cyclopentyl-5-methyl-7-oxo-7,8-dihydropyrido[2,3-d]pyrimidin-2-yl)amino)pyridin-3-yl)methyl)-2,7-diazaspiro[4.4]nonan-2-yl)acetyl)-2-azaspiro[3.3]heptan-6-yl)amino)-N-(6-(dimethylamino)pyridazin-3-yl)-6-((methyl-d3)amino)nicotinamide] | ≤ 10 |
| CC(=O)c1c(C)c2cnc(Nc3ccc(CN4CC5(CN(CC(=O)N6CCC(Nc7nc(NC(C)C)ccc7C(=O)Nc7ccc(N(C)C)nn7)CC6)C5)C4)cn3)nc2n(C2CCCC2)c1=O [CPD-509, 2-((1-(2-(6-((6-((6-acetyl-8-cyclopentyl-5-methyl-7-oxo-7,8-dihydropyrido[2,3-d]pyrimidin-2-yl)amino)pyridin-3-yl)methyl)-2,6-diazaspiro[3.3]heptan-2-yl)acetyl)piperidin-4-yl)amino)-N-(6-(dimethylamino)pyridazin-3-yl)-6-(isopropylamino)nicotinamide] | ≥ 50 |
| CC(=O)c1c(C)c2cnc(Nc3ccc(CN4CCN(CC(=O)NCC5CC(Nc6nc(NC(C)C)ccc6C(=O)Nc6ccc(N(C)C)nn6)C5)CC4)cn3)nc2n(C2CCCC2)c1=O (stereo not shown) [CPD-493, 2-((3-((2-(4-((6-((6-acetyl-8-cyclopentyl-5-methyl-7-oxo-7,8-dihydropyrido[2,3-d]pyrimidin-2-yl)amino)pyridin-3-yl)methyl)piperazin-1-yl)acetamido)methyl)cyclobutyl)amino)-N-(6-(dimethylamino)pyridazin-3-yl)-6-(isopropylamino)nicotinamide] | ≤ 10 |
| CNc1ccc(C(=O)Nc2ccc(N(C)C)nn2)c(NC2CN(CC(=O)N3CCN(Cc4ccc(Nc5ncc6c(C)c(C(C)=O)c(=O)n(C7CCCC7)c6n5)nc4)CC3)C2)n1 [CPD-513, 2-((1-(2-(4-((6-((6-acetyl-8-cyclopentyl-5-methyl-7-oxo-7,8-dihydropyrido[2,3-d]pyrimidin-2-yl)amino)pyridin-3-yl)methyl)piperazin-1-yl)-2-oxoethyl)azetidin-3-yl)amino)-N-(6-(dimethylamino)pyridazin-3-yl)-6-(methylamino)nicotinamide] | ≥ 50 |
| COc1cccc(NC(=O)c2ccc(NC(C)C)nc2N[C@H]2CC[C@H](C(=O)N3CCC(N4CCN(c5ccc(Nc6ncc7c(C)c(C(C)=O)c(=O)n(C8CCCC8)c7n6)nc5)CC4)C3)CC2)n1 (stereo partly drawn) [CPD-522, 2-((trans-4-(3-(4-(6-((6-acetyl-8-cyclopentyl-5-methyl-7-oxo-7,8-dihydropyrido[2,3-d]pyrimidin-2-yl)amino)pyridin-3-yl)piperazin-1-yl)pyrrolidine-1-carbonyl)cyclohexyl)amino)-6-(isopropylamino)-N-(6-methoxypyridin-2-yl)nicotinamide] | ≤ 10 |
| CC(=O)c1c(C)c2cnc(Nc3ccc(CN4CCN(C5CCN(C(=O)C6CC(Nc7nc(NC(C)C)ccc7C(=O)Nc7ccc(N(C)C)nn7)C6)C5)CC4)cn3)nc2n(C2CCCC2)c1=O (stereo not shown) [CPD-510, 2-((3-(3-(4-((6-((6-acetyl-8-cyclopentyl-5-methyl-7-oxo-7,8-dihydropyrido[2,3-d]pyrimidin-2-yl)amino)pyridin-3-yl)methyl)piperazin-1-yl)pyrrolidine-1-carbonyl)cyclobutyl)amino)-N-(6-(dimethylamino)pyridazin-3-yl)-6-(isopropylamino)nicotinamide] | ≥ 50 |
